{"source": "patent US20080085858A1", "about": "“Pharmaceutical Composition” (KYOWA HAKKO KOGYO CO., LTD., priority 2004, published 2008)", "origin": "cited, not measured here", "key": {"[1]": {"system": "delayed-type allergic reaction in the skin", "conditions": "animal model; Non-patent Document 1"}, "[2]": {"system": "chronic dermatitis models", "conditions": "Non-patent Document 2"}}, "data": [{"smiles": "COc1ccc([C@]2(C#N)CC[C@@H](C(=O)O)CC2)cc1OC1CCCC1", "note": "[SB207499]", "values": [{"measurement": "Effect on delayed-type allergic reaction in the skin", "setting": "[1]", "value": "inhibit a delayed-type allergic reaction in the skin"}, {"measurement": "Therapeutic effects on chronic dermatitis models", "setting": "[2]", "value": "exhibit therapeutic effects on chronic dermatitis models"}]}]}
